The values below are quoted from earlier work in patent publication US20070172525A1, “Anti-diabetic combinations” (priority 2007, published 2007).

The conditions of data set [1]: oral.
Data set [2] relates to patients with T2DM.
Data set [3] relates to patients with T2DM. The source holds these as a separate data set.
The test system of data set [4] is patients with T2DM. This is another data set of the same source.
Where [5] appears, read: monotherapy, 100 or 200 mg daily.
Setting [6] is: sitagliptin 100 mg daily added to metformin.

Regarding `CN(C)C(=N)N=C(N)N` [Conventional Metformin, Metformin], the “Time to complete gastrointestinal absorption after ingestion” value in data set [1] was not above 6 h.
Consider `N[C@@H](CC(=O)N1CCn2c(nnc2C(F)(F)F)C1)Cc1cc(F)c(F)cc1F` [Sitagliptin], for which the Weight gain entry in data set [2] (24-week monotherapy studies) is given as “no significant weight gain”. In data set [2] (setting [5]), the HbA1C entry is listed as “significantly reduced” and the Hypoglycemia result was “no significant increase”. For the same molecule, in data set [3] (sitagliptin 100 mg daily added to at least 1,500 mg per day of metformin, mean HbA1C of 8%), the “Patients achieving a HbA1C of <7%” value is given as 47%. Besides, in data set [3] (setting [6]), the Fasting glucose entry is “significant reductions” and the “Mean placebo-subtracted reduction in HbA1C” value is 0.65%. In data set [4] (24 weeks, sitagliptin 100 mg daily plus pioglitazone versus pioglitazone alone), the “Patients achieved a HbA1C of <7%” value was 45.4%. Also, the “Mean HbA1C reduction” value in data set [4] (sitagliptin 100 mg daily added to pioglitazone (30 or 45 mg daily), 24 weeks, mean HbA1C 8.1%) is 0.7%. The “Rates of hypoglycemia or weight gain relative to pioglitazone alone” value in data set [4] (sitagliptin added to pioglitazone) is given as “not associated with increased rates”.
